Broadly, the IC50 is the midpoint of a concentration-inhibition curve.

Some results are limits rather than exact numbers.

In patent publication US10273222B2 (CELGENE QUANTICEL RESEARCH, INC., priority 2013, dated 2019) one finds IC50 data, which are given here for eight compounds.

The target of one test is JMJD2C (Homo sapiens (Human), UniProt Q9H3R0). Briefly: JMJD2C in vitro enzyme inhibition assay (TR-FRET). The format is biochemical.
Chain of JMJD2C (Q9H3R0 2-372): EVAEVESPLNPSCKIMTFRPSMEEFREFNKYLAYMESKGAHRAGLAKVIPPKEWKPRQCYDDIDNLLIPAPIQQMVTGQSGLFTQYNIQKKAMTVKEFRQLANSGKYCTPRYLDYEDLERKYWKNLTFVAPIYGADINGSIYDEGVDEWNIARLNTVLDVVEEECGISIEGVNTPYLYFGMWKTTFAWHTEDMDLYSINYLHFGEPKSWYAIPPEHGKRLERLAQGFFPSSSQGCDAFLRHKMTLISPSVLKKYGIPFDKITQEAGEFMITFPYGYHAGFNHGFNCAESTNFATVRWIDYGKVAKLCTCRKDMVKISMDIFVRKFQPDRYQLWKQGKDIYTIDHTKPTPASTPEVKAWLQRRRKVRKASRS
Conditions: not given
A general note: Time-resolved FRET reads energy transfer from a long-lived donor to a nearby acceptor.
As for `Cc1ccccc1CCn1cnc(-c2cc(C(=O)O)ccn2)c1` [Example 96, 2-[1-[2-(2-methylphenyl)ethyl]imidazol-4-yl]pyridine-4-carboxylic acid], the IC50 was in the range of 100 to 1000 nM.

In turn, `O=C(O)c1ccnc(-c2cn(CCc3ccccc3Cl)cn2)c1` [Example 97, 2-[1-[2-(2-chlorophenyl)ethyl]imidazol-4-yl]pyridine-4-carboxylic acid] returned an IC50 of 100 to 1000 nM.

`O=C(O)c1ccnc(-c2cn(CCc3ccccc3C(F)(F)F)cn2)c1` [Example 98, 2-[1-[2-[2-(trifluoromethyl)phenyl]ethyl]imidazol-4-yl]pyridine-4-carboxylic acid] displayed an IC50 of at most 100 nM.

Turning to `O=C(O)c1ccnc(-c2cn(C3Cc4ccccc4C3)cn2)c1` [Example 99, 2-[1-(2,3-dihydro-1H-inden-2-yl)imidazol-4-yl]pyridine-4-carboxylic acid], the IC50 lay within 100 to 1000 nM.

Consider `O=C(O)c1ccnc(-c2cn(Cc3ccc(F)cc3)cn2)c1` [Example 101, 2-[1-[(4-fluorophenyl)methyl]imidazol-4-yl]pyridine-4-carboxylic acid], for which the IC50 is 100 to 1000 nM.

Compound `O=C(O)c1ccnc(-c2cn(Cc3ccccc3F)cn2)c1` [Example 102, 2-[1-[(2-fluorophenyl)methyl]imidazol-4-yl]pyridine-4-carboxylic acid] gave an IC50 of 100 to 1000 nM.

Regarding `CC(c1ccccc1)n1cnc(-c2cc(C(=O)O)ccn2)c1` (stereo not drawn) [Example 103], the IC50 was at most 100 nM.

Consider `CC(C)(Cn1cnc(-c2cc(C(=O)O)ccn2)c1)c1ccccc1Cl` [Example 105, 2-[1-[2-(2-chlorophenyl)-2-methylpropyl]imidazol-4-yl]pyridine-4-carboxylic acid], for which the IC50 was in the range of 1000 to 10000 nM.

The next test relates to KDM5A and KDM5B. Briefly: In vitro cell-based assay: tri-methyl H3K4 immuno-blotting in ZR-75-1 cells (cellular inhibition of KDM5A/B). As to conditions: ZR-75-1 breast cancer cells, 72 hours, tri-methylated H3K4 level; read-out: IC50 ZR-75-1 cell-MOA.
Method: This quantitative immuno-blotting assay measures the amount tri-methylated histone H3 at amino acid Lysine number 4, a specific substrate and product of the direct enzymatic activity of the histone demethylases KDM5A and KDM5B from extracts of the ZR-75-1 breast cancer cell line.
This assay is a fluorometric immunoassay for the quantification of tri-methyl H3K4 extracted from cells treated with test compound and is used as a measure of the cellular inhibition of KDM5A/B.
Extracts were prepared containing all of the cellular histone material using detergent based lysis and sonication methods. These lysates were subsequently normalized for total protein content using a colorimetric bicinchonic acid assay (MicroBCA Pierce/Thermo Scientific). Normalized cell extracts were then subjected to typical immuno-blotting procedures using NuPage reagents (Life Technologies). Electrophoretically separated histones were then transferred and immobilized using polyvinylidene difluoride membrane (Immobilon-FL Millipore). The amount of tri-methylated lysine 4 of histone H3 was detected using an antibody specific to the tri-methylated state (Cell Signaling Technologies) and quantified on an infrared imager using a densitometry software package (Odyssey CLx, Image Studio, Li-Cor). This background subtracted densitometry value was reported as a ration of the GAPDH amount for that sample and then calculated as a percent of the DMSO treated sample. The software package XL-fit (IDBS) was then used to calculate a relative IC50 value for the dilution series of a given test compound according to the equation: fit=(D+((Vmax*(x^n))/((x^n)+(Km^n)))).
`Cc1ccccc1CCn1cnc(-c2cc(C(=O)O)ccn2)c1` [Example 96, 2-[1-[2-(2-methylphenyl)ethyl]imidazol-4-yl]pyridine-4-carboxylic acid]: the IC50 is 1000 to 10000 nM.

As to `O=C(O)c1ccnc(-c2cn(CCc3ccccc3Cl)cn2)c1` [Example 97, 2-[1-[2-(2-chlorophenyl)ethyl]imidazol-4-yl]pyridine-4-carboxylic acid], the 50% inhibitory concentration (IC50) is 1000 to 10000 nM.

Regarding `O=C(O)c1ccnc(-c2cn(CCc3ccccc3C(F)(F)F)cn2)c1` [Example 98, 2-[1-[2-[2-(trifluoromethyl)phenyl]ethyl]imidazol-4-yl]pyridine-4-carboxylic acid], the IC50 is above 10000 nM.

Turning to `O=C(O)c1ccnc(-c2cn(C3Cc4ccccc4C3)cn2)c1` [Example 99, 2-[1-(2,3-dihydro-1H-inden-2-yl)imidazol-4-yl]pyridine-4-carboxylic acid], the IC50 lay in the range of 1000 to 10000 nM.

Consider `O=C(O)c1ccnc(-c2cn(Cc3ccc(F)cc3)cn2)c1` [Example 101, 2-[1-[(4-fluorophenyl)methyl]imidazol-4-yl]pyridine-4-carboxylic acid], for which the IC50 is 1000 to 10000 nM.

With `O=C(O)c1ccnc(-c2cn(Cc3ccccc3F)cn2)c1` [Example 102, 2-[1-[(2-fluorophenyl)methyl]imidazol-4-yl]pyridine-4-carboxylic acid], the IC50 was in the range of 1000 to 10000 nM.

As for `CC(c1ccccc1)n1cnc(-c2cc(C(=O)O)ccn2)c1` (stereo not drawn) [Example 103], the 50% inhibitory concentration (IC50) was 1000 to 10000 nM.

Consider `CC(C)(Cn1cnc(-c2cc(C(=O)O)ccn2)c1)c1ccccc1Cl` [Example 105, 2-[1-[2-(2-chlorophenyl)-2-methylpropyl]imidazol-4-yl]pyridine-4-carboxylic acid], for which the IC50 was in the range of 1000 to 10000 nM.

For the next test, the target named is JMJD2A (Homo sapiens (Human), UniProt O75164). The test is described as follows: JMJD2A in vitro enzyme inhibition assay (TR-FRET). The format is biochemical.
Chain of JMJD2A (O75164 1-350): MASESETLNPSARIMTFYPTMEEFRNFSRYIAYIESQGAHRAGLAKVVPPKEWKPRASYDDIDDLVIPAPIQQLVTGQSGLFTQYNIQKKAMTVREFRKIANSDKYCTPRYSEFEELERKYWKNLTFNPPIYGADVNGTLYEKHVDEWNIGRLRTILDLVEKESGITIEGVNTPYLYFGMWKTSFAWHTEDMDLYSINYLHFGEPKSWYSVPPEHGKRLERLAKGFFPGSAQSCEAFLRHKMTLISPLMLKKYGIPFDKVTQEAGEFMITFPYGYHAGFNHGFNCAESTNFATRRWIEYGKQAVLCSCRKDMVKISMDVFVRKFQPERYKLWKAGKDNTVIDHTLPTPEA
Conditions: not given
`Cc1ccccc1CCn1cnc(-c2cc(C(=O)O)ccn2)c1` [Example 96, 2-[1-[2-(2-methylphenyl)ethyl]imidazol-4-yl]pyridine-4-carboxylic acid]: the IC50 lay in the range of 100 to 1000 nM.

Compound `O=C(O)c1ccnc(-c2cn(CCc3ccccc3Cl)cn2)c1` [Example 97, 2-[1-[2-(2-chlorophenyl)ethyl]imidazol-4-yl]pyridine-4-carboxylic acid] yielded an IC50 of at most 100 nM.

Regarding `O=C(O)c1ccnc(-c2cn(CCc3ccccc3C(F)(F)F)cn2)c1` [Example 98, 2-[1-[2-[2-(trifluoromethyl)phenyl]ethyl]imidazol-4-yl]pyridine-4-carboxylic acid], the IC50 is at most 100 nM.

`O=C(O)c1ccnc(-c2cn(C3Cc4ccccc4C3)cn2)c1` [Example 99, 2-[1-(2,3-dihydro-1H-inden-2-yl)imidazol-4-yl]pyridine-4-carboxylic acid] gave an IC50 of 100 to 1000 nM.

With `O=C(O)c1ccnc(-c2cn(Cc3ccc(F)cc3)cn2)c1` [Example 101, 2-[1-[(4-fluorophenyl)methyl]imidazol-4-yl]pyridine-4-carboxylic acid], the IC50 fell in the range of 100 to 1000 nM.

The compound `O=C(O)c1ccnc(-c2cn(Cc3ccccc3F)cn2)c1` [Example 102, 2-[1-[(2-fluorophenyl)methyl]imidazol-4-yl]pyridine-4-carboxylic acid] registered an IC50 of 100 to 1000 nM.

With `CC(c1ccccc1)n1cnc(-c2cc(C(=O)O)ccn2)c1` (stereo not drawn) [Example 103], the IC50 is at most 100 nM.

Consider `CC(C)(Cn1cnc(-c2cc(C(=O)O)ccn2)c1)c1ccccc1Cl` [Example 105, 2-[1-[2-(2-chlorophenyl)-2-methylpropyl]imidazol-4-yl]pyridine-4-carboxylic acid], for which the concentration for half-maximal inhibition (IC50) was 100 to 1000 nM.

Another test deals with Jarid1A (Homo sapiens (Human), UniProt P29375). Briefly: Jarid1A in vitro enzyme inhibition assay (TR-FRET). The format is biochemical.
Chain of Jarid1A (P29375 1-1090): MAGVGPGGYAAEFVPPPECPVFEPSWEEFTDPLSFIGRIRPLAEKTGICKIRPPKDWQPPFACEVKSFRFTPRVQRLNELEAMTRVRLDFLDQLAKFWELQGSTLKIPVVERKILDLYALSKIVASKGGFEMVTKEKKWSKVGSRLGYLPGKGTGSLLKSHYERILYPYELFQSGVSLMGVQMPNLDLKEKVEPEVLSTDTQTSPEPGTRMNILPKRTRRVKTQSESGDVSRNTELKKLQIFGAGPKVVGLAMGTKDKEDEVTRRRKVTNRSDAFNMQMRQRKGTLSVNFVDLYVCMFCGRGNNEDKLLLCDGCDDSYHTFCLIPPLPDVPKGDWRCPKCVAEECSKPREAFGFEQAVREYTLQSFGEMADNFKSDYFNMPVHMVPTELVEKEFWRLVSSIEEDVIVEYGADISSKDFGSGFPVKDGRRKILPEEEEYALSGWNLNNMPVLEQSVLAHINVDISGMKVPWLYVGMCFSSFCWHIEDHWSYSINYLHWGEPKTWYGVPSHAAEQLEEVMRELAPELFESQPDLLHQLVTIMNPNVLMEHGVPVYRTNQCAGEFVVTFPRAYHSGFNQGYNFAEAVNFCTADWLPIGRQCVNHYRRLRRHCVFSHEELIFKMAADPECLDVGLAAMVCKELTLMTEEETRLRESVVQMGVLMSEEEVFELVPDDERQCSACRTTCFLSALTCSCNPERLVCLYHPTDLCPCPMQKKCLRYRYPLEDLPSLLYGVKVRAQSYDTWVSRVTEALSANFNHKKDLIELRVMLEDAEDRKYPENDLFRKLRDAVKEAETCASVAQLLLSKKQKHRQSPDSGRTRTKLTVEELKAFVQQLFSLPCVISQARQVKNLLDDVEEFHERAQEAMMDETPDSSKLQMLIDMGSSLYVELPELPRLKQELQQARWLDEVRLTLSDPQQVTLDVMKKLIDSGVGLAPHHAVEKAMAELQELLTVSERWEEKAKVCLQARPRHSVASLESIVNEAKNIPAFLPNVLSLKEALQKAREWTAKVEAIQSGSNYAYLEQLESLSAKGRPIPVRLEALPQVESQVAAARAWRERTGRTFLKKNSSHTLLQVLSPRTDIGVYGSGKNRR
Conditions: not given
The text has this:
The enzymatic assay of Jarid1A activity is based upon Time Resolved-Fluorescence Resonance Energy Transfer (TR-FRET) detection.
In the case of `Cc1ccccc1CCn1cnc(-c2cc(C(=O)O)ccn2)c1` [Example 96, 2-[1-[2-(2-methylphenyl)ethyl]imidazol-4-yl]pyridine-4-carboxylic acid], the IC50 is at most 100 nM.

`O=C(O)c1ccnc(-c2cn(CCc3ccccc3Cl)cn2)c1` [Example 97, 2-[1-[2-(2-chlorophenyl)ethyl]imidazol-4-yl]pyridine-4-carboxylic acid] had an IC50 of at most 100 nM.

For the compound `O=C(O)c1ccnc(-c2cn(CCc3ccccc3C(F)(F)F)cn2)c1` [Example 98, 2-[1-[2-[2-(trifluoromethyl)phenyl]ethyl]imidazol-4-yl]pyridine-4-carboxylic acid], the IC50 is at most 100 nM.

`O=C(O)c1ccnc(-c2cn(C3Cc4ccccc4C3)cn2)c1` [Example 99, 2-[1-(2,3-dihydro-1H-inden-2-yl)imidazol-4-yl]pyridine-4-carboxylic acid] had an IC50 of at most 100 nM.

`O=C(O)c1ccnc(-c2cn(Cc3ccc(F)cc3)cn2)c1` [Example 101, 2-[1-[(4-fluorophenyl)methyl]imidazol-4-yl]pyridine-4-carboxylic acid] displayed an IC50 of at most 100 nM.

`O=C(O)c1ccnc(-c2cn(Cc3ccccc3F)cn2)c1` [Example 102, 2-[1-[(2-fluorophenyl)methyl]imidazol-4-yl]pyridine-4-carboxylic acid] registered a concentration for half-maximal inhibition (IC50) of at most 100 nM.

Consider `CC(c1ccccc1)n1cnc(-c2cc(C(=O)O)ccn2)c1` (stereo not drawn) [Example 103], for which the IC50 was at most 100 nM.

`CC(C)(Cn1cnc(-c2cc(C(=O)O)ccn2)c1)c1ccccc1Cl` [Example 105, 2-[1-[2-(2-chlorophenyl)-2-methylpropyl]imidazol-4-yl]pyridine-4-carboxylic acid] yielded an IC50 of at most 100 nM.

In the next test the target is Jarid1B (Homo sapiens (Human), UniProt Q9UGL1). The test is described as follows: Jarid1B in vitro enzyme inhibition assay (TR-FRET). The format is biochemical.
Chain of Jarid1B (Q9UGL1 2-751): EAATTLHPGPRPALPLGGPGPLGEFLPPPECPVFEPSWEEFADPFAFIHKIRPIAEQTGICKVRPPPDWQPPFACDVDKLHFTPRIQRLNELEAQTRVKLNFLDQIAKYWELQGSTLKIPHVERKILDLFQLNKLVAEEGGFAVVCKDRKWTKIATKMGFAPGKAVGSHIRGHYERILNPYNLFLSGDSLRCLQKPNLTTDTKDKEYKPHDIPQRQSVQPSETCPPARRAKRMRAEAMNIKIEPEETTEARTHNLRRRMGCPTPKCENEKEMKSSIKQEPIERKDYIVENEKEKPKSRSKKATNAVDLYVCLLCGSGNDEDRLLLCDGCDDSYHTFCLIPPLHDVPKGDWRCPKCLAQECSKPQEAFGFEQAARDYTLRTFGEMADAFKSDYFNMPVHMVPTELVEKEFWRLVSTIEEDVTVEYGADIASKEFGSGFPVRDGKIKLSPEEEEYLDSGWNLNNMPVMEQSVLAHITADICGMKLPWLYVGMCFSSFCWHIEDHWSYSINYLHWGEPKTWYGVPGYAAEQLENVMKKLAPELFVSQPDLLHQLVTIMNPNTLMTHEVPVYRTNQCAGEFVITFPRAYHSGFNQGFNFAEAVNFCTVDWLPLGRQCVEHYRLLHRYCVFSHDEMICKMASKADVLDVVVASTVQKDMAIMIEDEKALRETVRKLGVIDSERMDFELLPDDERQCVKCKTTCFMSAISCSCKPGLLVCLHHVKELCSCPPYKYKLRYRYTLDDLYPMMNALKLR
Conditions: not given
With `Cc1ccccc1CCn1cnc(-c2cc(C(=O)O)ccn2)c1` [Example 96, 2-[1-[2-(2-methylphenyl)ethyl]imidazol-4-yl]pyridine-4-carboxylic acid], the IC50 was at most 100 nM.

Compound `O=C(O)c1ccnc(-c2cn(CCc3ccccc3Cl)cn2)c1` [Example 97, 2-[1-[2-(2-chlorophenyl)ethyl]imidazol-4-yl]pyridine-4-carboxylic acid] yielded an IC50 of at most 100 nM.

As for `O=C(O)c1ccnc(-c2cn(CCc3ccccc3C(F)(F)F)cn2)c1` [Example 98, 2-[1-[2-[2-(trifluoromethyl)phenyl]ethyl]imidazol-4-yl]pyridine-4-carboxylic acid], the IC50 is at most 100 nM.

For the compound `O=C(O)c1ccnc(-c2cn(C3Cc4ccccc4C3)cn2)c1` [Example 99, 2-[1-(2,3-dihydro-1H-inden-2-yl)imidazol-4-yl]pyridine-4-carboxylic acid], the IC50 is at most 100 nM.

Regarding `O=C(O)c1ccnc(-c2cn(Cc3ccc(F)cc3)cn2)c1` [Example 101, 2-[1-[(4-fluorophenyl)methyl]imidazol-4-yl]pyridine-4-carboxylic acid], the IC50 was at most 100 nM.

`O=C(O)c1ccnc(-c2cn(Cc3ccccc3F)cn2)c1` [Example 102, 2-[1-[(2-fluorophenyl)methyl]imidazol-4-yl]pyridine-4-carboxylic acid]: the IC50 was at most 100 nM.

`CC(c1ccccc1)n1cnc(-c2cc(C(=O)O)ccn2)c1` (stereo not drawn) [Example 103] registered an IC50 of at most 100 nM.

In the case of `CC(C)(Cn1cnc(-c2cc(C(=O)O)ccn2)c1)c1ccccc1Cl` [Example 105, 2-[1-[2-(2-chlorophenyl)-2-methylpropyl]imidazol-4-yl]pyridine-4-carboxylic acid], the IC50 was at most 100 nM.

In the next test the target is FBXL10 (Homo sapiens (Human), UniProt Q8NHM5). Briefly: FBXL10 in vitro enzyme inhibition assay (AlphaScreen). It is filed as biochemical.
Chain of FBXL10 (Q8NHM5 1-650): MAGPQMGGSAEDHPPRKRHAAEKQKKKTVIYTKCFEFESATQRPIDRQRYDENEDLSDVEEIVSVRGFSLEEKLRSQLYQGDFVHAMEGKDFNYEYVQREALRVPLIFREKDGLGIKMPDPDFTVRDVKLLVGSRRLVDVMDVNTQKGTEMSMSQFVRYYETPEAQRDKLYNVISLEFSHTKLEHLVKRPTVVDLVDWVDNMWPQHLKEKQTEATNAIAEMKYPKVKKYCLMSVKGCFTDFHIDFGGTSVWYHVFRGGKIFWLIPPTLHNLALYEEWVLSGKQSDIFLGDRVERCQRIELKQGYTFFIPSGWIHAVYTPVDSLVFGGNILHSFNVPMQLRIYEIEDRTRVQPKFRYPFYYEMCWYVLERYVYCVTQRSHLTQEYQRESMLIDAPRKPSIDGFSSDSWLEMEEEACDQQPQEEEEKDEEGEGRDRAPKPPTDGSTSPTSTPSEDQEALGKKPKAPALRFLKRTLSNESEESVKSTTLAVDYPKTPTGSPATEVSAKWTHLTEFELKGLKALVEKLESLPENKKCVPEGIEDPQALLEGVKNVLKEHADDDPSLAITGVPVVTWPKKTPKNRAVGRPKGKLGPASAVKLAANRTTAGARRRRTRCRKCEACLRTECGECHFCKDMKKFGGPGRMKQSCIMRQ
Conditions: not given
An outline of the steps: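 AlphaScreen read-out of H3K36me1 product, detected with anti-H3K36me1 antibody plus streptavidin donor and Protein A acceptor beads (final 10 μg/ml) in 50 mM HEPES pH 7.3, 10 mM NaCl, 0.005% Brij35, 5 mM EDTA, 2 mg/ml BSA. Beads incubated 2 h to overnight at room temperature; IC50 derived from AlphaScreen signal.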
For orientation: Bead proximity is the source of the signal in Alpha formats.
As for `Cc1ccccc1CCn1cnc(-c2cc(C(=O)O)ccn2)c1` [Example 96, 2-[1-[2-(2-methylphenyl)ethyl]imidazol-4-yl]pyridine-4-carboxylic acid], the IC50 is at most 100 nM.

As for `O=C(O)c1ccnc(-c2cn(CCc3ccccc3Cl)cn2)c1` [Example 97, 2-[1-[2-(2-chlorophenyl)ethyl]imidazol-4-yl]pyridine-4-carboxylic acid], the IC50 is at most 100 nM.

`O=C(O)c1ccnc(-c2cn(CCc3ccccc3C(F)(F)F)cn2)c1` [Example 98, 2-[1-[2-[2-(trifluoromethyl)phenyl]ethyl]imidazol-4-yl]pyridine-4-carboxylic acid] showed an IC50 of at most 100 nM.

`O=C(O)c1ccnc(-c2cn(C3Cc4ccccc4C3)cn2)c1` [Example 99, 2-[1-(2,3-dihydro-1H-inden-2-yl)imidazol-4-yl]pyridine-4-carboxylic acid]: the IC50 was at most 100 nM.

Regarding `O=C(O)c1ccnc(-c2cn(Cc3ccc(F)cc3)cn2)c1` [Example 101, 2-[1-[(4-fluorophenyl)methyl]imidazol-4-yl]pyridine-4-carboxylic acid], the IC50 is at most 100 nM.

The compound `O=C(O)c1ccnc(-c2cn(Cc3ccccc3F)cn2)c1` [Example 102, 2-[1-[(2-fluorophenyl)methyl]imidazol-4-yl]pyridine-4-carboxylic acid] had an IC50 of at most 100 nM.

Turning to `CC(c1ccccc1)n1cnc(-c2cc(C(=O)O)ccn2)c1` (stereo not drawn) [Example 103], the IC50 was at most 100 nM.

In turn, `CC(C)(Cn1cnc(-c2cc(C(=O)O)ccn2)c1)c1ccccc1Cl` [Example 105, 2-[1-[2-(2-chlorophenyl)-2-methylpropyl]imidazol-4-yl]pyridine-4-carboxylic acid] gave an IC50 of at most 100 nM.
